Assays:
[1] = molecular target: T1, Metabotropic glutamate receptor 5 (Homo sapiens, UniProt P41594); assay: In vitro for inhibitory activity of compound against recombinant Metabotropic glutamate receptor 5 evaluated as inhibition of quisqualate-stimulated phosphoinositide (PI) hydrolysis; format: functional
[2] = molecular target: T1, Metabotropic glutamate receptor 5; assay: Tested in vitro binding affinity for displacement of [3H]M-MPEP from membrane of L(-tk) cells expressing the Metabotropic glutamate receptor 5, activity expressed as IC50

T1 sequence (P41594 whole entry): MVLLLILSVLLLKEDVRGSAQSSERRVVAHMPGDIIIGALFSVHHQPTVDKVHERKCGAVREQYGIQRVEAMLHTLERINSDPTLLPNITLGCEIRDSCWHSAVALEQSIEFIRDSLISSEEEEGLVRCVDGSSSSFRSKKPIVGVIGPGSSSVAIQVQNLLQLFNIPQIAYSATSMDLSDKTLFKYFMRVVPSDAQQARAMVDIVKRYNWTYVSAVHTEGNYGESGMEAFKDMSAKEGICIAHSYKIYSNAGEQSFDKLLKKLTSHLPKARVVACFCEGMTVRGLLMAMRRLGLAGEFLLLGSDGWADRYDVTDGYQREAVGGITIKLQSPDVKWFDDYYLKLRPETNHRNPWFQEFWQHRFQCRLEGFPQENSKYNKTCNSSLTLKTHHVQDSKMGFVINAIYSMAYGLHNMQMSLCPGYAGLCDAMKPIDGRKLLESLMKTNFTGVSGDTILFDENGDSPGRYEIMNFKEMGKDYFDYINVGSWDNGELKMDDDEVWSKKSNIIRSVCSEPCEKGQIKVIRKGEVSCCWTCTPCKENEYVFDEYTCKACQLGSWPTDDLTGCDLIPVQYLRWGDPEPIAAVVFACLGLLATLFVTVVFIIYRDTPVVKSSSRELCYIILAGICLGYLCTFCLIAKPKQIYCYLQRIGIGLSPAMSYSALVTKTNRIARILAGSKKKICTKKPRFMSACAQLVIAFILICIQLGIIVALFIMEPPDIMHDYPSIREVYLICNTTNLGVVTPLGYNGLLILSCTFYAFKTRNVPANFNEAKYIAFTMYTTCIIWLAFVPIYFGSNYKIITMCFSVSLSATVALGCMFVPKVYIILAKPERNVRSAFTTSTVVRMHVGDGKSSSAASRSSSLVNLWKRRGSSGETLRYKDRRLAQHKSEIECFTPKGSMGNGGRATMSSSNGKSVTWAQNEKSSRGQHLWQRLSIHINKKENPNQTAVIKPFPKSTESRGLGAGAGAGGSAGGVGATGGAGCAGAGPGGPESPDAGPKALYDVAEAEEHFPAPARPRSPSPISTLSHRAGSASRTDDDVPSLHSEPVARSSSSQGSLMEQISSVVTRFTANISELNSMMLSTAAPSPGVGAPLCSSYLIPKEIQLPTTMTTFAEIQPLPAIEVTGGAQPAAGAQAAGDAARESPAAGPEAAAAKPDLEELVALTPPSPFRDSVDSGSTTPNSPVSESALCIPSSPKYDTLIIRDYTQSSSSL

SMILES	IC50 [1] [nM]	IC50 [2] [nM]
Cc1cccc(/C=C/c2ccccc2)n1	3000	1100
[3H]C([3H])([3H])OCc1cccc(C#Cc2cccc(C)n2)c1	10	3.6

Source: ChEMBL document CHEMBL1135040, “[(3)H]-M-MPEP, a potent, subtype-selective radioligand for the metabotropic glutamate receptor subtype 5” (Bioorg Med Chem Lett, 2002)
